Molecular target: Peptide deformylase (Escherichia coli) (UniProt P0A6K3)
Assay: Inhibition against Escherichia coli peptide deformylase

Chain of Peptide deformylase (Escherichia coli) (P0A6K3 whole entry, looked up): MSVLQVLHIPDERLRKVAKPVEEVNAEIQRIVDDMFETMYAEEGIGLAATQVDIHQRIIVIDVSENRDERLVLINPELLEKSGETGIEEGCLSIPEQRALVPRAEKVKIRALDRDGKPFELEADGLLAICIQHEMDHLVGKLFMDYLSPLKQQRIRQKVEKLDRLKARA

IC50 | Compound
20 nM | CN(C)C(=O)[C@@H](NC(=O)[C@H](Cc1ccccc1)CN(O)C=O)C(C)(C)C [(S)-2-[(R)-2-Benzyl-3-(formyl-hydroxy-amino)-propionylamino]-3,3,N,N-tetramethyl-butyramide]
600 nM | CCCC[C@@H](C(=O)N[C@H](C(=O)N(C)C)C(C)(C)C)C(C)N(O)C=O (stereo partly drawn) [(R)-2-[1-(Formyl-hydroxy-amino)-ethyl]-hexanoic acid ((S)-1-dimethylcarbamoyl-2,2-dimethyl-propyl)-amide]
50 nM | CCC[C@H](CN(O)C=O)C(=O)N[C@H](C(=O)N(C)C)C(C)(C)C [(R)-2-[(Formyl-hydroxy-amino)-methyl]-pentanoic acid ((S)-1-dimethylcarbamoyl-2,2-dimethyl-propyl)-amide]
70 nM | CC[C@H](CN(O)C=O)C(=O)N[C@H](C(=O)N(C)C)C(C)(C)C [(S)-2-{(R)-2-[(Formyl-hydroxy-amino)-methyl]-butyrylamino}-3,3,N,N-tetramethyl-butyramide]
10 nM | CC(C)C[C@H](CN(O)C=O)C(=O)N[C@H](C(=O)N(C)C)C(C)(C)C [(R)-2-[(Formyl-hydroxy-amino)-methyl]-4-methyl-pentanoic acid ((S)-1-dimethylcarbamoyl-2,2-dimethyl-propyl)-amide]
50 nM | CC(C)[C@H](CN(O)C=O)C(=O)N[C@H](C(=O)N(C)C)C(C)(C)C [(R)-N-((S)-1-Dimethylcarbamoyl-2,2-dimethyl-propyl)-2-[(formyl-hydroxy-amino)-methyl]-3-methyl-butyramide]
50 nM | CCCCCCCC[C@H](CN(O)C=O)C(=O)N[C@H](C(=O)N(C)C)C(C)(C)C [(R)-2-[(Formyl-hydroxy-amino)-methyl]-decanoic acid [1-((S)-dimethyl-carbamoyl)-2,2-dimethyl-propyl]-amide]
10 nM | CCCCC[C@H](CN(O)C=O)C(=O)N[C@H](C(=O)N(C)C)C(C)(C)C [(R)-2-[(Formyl-hydroxy-amino)-methyl]-heptanoic acid ((S)-1-dimethylcarbamoyl-2,2-dimethyl-propyl)-amide]
30 nM | CC#CC[C@H](CN(O)C=O)C(=O)N[C@H](C(=O)N(C)C)C(C)(C)C [(R)-2-[(Formyl-hydroxy-amino)-methyl]-hex-4-ynoic acid ((S)-1-dimethylcarbamoyl-2,2-dimethyl-propyl)-amide]
30 nM | CCCCCC[C@H](CN(O)C=O)C(=O)N[C@H](C(=O)N(C)C)C(C)(C)C [(R)-2-[(Formyl-hydroxy-amino)-methyl]-octanoic acid ((S)-1-dimethylcarbamoyl-2,2-dimethyl-propyl)-amide]
20 nM | CC(C)CC[C@H](CN(O)C=O)C(=O)N[C@H](C(=O)N(C)C)C(C)(C)C [(R)-2-[(Formyl-hydroxy-amino)-methyl]-5-methyl-hexanoic acid ((S)-1-dimethylcarbamoyl-2,2-dimethyl-propyl)-amide]
20 nM | CN(C)C(=O)[C@@H](NC(=O)[C@@H](CN(O)C=O)C1CCCC1)C(C)(C)C [(S)-2-[(R)-2-Cyclopentyl-3-(formyl-hydroxy-amino)-propionylamino]-3,3,N,N-tetramethyl-butyramide]
> 1000 nM | CN(C)C(=O)[C@@H](NC(=O)[C@@H](CN(O)C=O)CN1CCCCC1)C(C)(C)C [(S)-2-{(R)-2-[(Formyl-hydroxy-amino)-methyl]-3-piperidin-1-yl-propionylamino}-3,3,N,N-tetramethyl-butyramide]
6 nM | CN(C)C(=O)[C@@H](NC(=O)[C@H](CC1CCCCC1)CN(O)C=O)C(C)(C)C [(S)-2-[(R)-2-Cyclohexylmethyl-3-(formyl-hydroxy-amino)-propionylamino]-3,3,N,N-tetramethyl-butyramide]
100 nM | C[C@H](CN(O)C=O)C(=O)N[C@H](C(=O)N(C)C)C(C)(C)C [(S)-2-[(R)-3-(Formyl-hydroxy-amino)-2-methyl-propionylamino]-3,3,N,N-tetramethyl-butyramide]
20 nM | C=CCC[C@H](CN(O)C=O)C(=O)N[C@H](C(=O)N(C)C)C(C)(C)C [(R)-2-[(Formyl-hydroxy-amino)-methyl]-hex-5-enoic acid ((S)-1-dimethylcarbamoyl-2,2-dimethyl-propyl)-amide]
40 nM | CCCCCCC[C@H](CN(O)C=O)C(=O)N[C@H](C(=O)N(C)C)C(C)(C)C [(R)-2-[(Formyl-hydroxy-amino)-methyl]-nonanoic acid ((S)-1-dimethylcarbamoyl-2,2-dimethyl-propyl)-amide]
20 nM | CCSC[C@H](CN(O)C=O)C(=O)N[C@H](C(=O)N(C)C)C(C)(C)C [(S)-2-[(R)-2-Ethylsulfanylmethyl-3-(formyl-hydroxy-amino)-propionylamino]-3,3,N,N-tetramethyl-butyramide]
30 nM | C=CC[C@H](CN(O)C=O)C(=O)N[C@H](C(=O)N(C)C)C(C)(C)C [(R)-2-[(Formyl-hydroxy-amino)-methyl]-pent-4-enoic acid ((S)-1-dimethylcarbamoyl-2,2-dimethyl-propyl)-amide]
